pEC50, pIC50: −log10 of the molar value. The source made the active and inactive calls. The rule behind the calls is not given here.
What was measured:
[1] = Anticancer activity against human ER-positive MCF7 cells measured after 48 hrs by SRB assay; type: functional, cell-based; conditions: MCF7, 48 h
[2] = Anticancer activity against human DLD1 cells measured after 48 hrs by SRB assay; type: functional, cell-based; conditions: DLD-1, 48 h
[3] = Anticancer activity against human A549 cells measured after 48 hrs by SRB assay; type: functional, cell-based; conditions: A549, 48 h
[4] = Anticancer activity against human DU145 cells measured after 48 hrs by SRB assay; type: functional, cell-based; conditions: DU-145, 48 h
[5] = Anticancer activity against human FADU cells measured after 48 hrs by SRB assay; type: functional, cell-based
[6] = Cytotoxicity against human THP1 cells by MTT assay; type: toxicity, cell-based, THP-1
[7] = Inhibition of tubulin depolymerization (unknown origin) measured up to 60 mins; set-up: species or system Homo sapiens
[8] = Cell cycle arrest in human ER-positive MCF7 cells assessed as accumulation at sub-G0 phase at 7.2 and 14.93 uM by propidium iodide staining based flow cytometry relative to vehicle control; type: functional; conditions: TDE = time-dependent effect
[9] = Cell cycle arrest in human ER-positive MCF7 cells assessed as accumulation at G2M phase at 7.2 and 14.93 uM by propidium iodide staining based flow cytometry relative to vehicle control; type: functional; conditions: TDE = time-dependent effect
[10] = Cell cycle arrest in human ER-positive MCF7 cells assessed as decrease in S-phase cell population at 7.2 and 14.93 uM after 24 hrs by propidium iodide staining based flow cytometry relative to vehicle control; type: functional
MCF7 = experiment: Induction of apoptosis in human ER-positive MCF7 cells assessed as PARP cleavage at 2.5 to 10 uM by Western blot analysis; type: functional, cell-based; conditions: TDE = time-dependent effect

| pEC50 [7] | SMILES | pIC50 [1] | pIC50 [2] | pIC50 [3] | pIC50 [4] | pIC50 [5] | CC50 [6] | Activity [8] | Activity [9] | Activity [10] | Activity (MCF7) |
| --- | --- | --- | --- | --- | --- | --- | --- | --- | --- | --- | --- |
| – | COc1ccc(-c2oc3c(OC)c(OC)cc(OCCN4CCCC4)c3c(=O)c2O)cc1 | 4.83 | 4.76 | 4.95 | 5.15 | 5.01 | 100 µM | – | – | – | – |
| – | COc1ccc(-c2oc3c(OC)c(OC)cc(OCCCCC(=O)NCCc4ccccn4)c3c(=O)c2O)cc1 | < 4.40 | < 4.40 | < 4.40 | < 4.40 | < 4.40 | – | – | – | – | – |
| – | COc1ccc(-c2oc3c(OC)c(OC)cc(OCCCC(=O)N4CCN(C)CC4)c3c(=O)c2O)cc1 | < 4.40 | < 4.40 | < 4.40 | < 4.40 | < 4.40 | – | – | – | – | – |
| – | COc1ccc(-c2oc3c(OC)c(OC)cc(OCCCC(=O)NCCc4ccccn4)c3c(=O)c2O)cc1 | < 4.40 | < 4.40 | < 4.40 | < 4.40 | < 4.40 | – | – | – | – | – |
| – | CC/C(=C(\c1ccccc1)c1ccc(OCCN(C)C)cc1)c1ccccc1 [TAMOXIFEN] | 4.74 | 4.96 | 4.76 | 4.74 | 5.27 | – | – | – | – | – |
| – | COc1ccc(-c2oc3c(OC)c(OC)cc(OCCCCCC(=O)NCCc4ccccn4)c3c(=O)c2O)cc1 | < 4.40 | < 4.40 | < 4.40 | < 4.40 | < 4.40 | – | – | – | – | – |
| – | COc1ccc(-c2oc3c(OC)c(OC)cc(OCCCCC(=O)NCc4ccccn4)c3c(=O)c2O)cc1 | < 4.40 | < 4.40 | < 4.40 | < 4.40 | < 4.40 | – | – | – | – | – |
| – | CCCCN(C)C(=O)CCCCOc1cc(OC)c(OC)c2oc(-c3ccc(OC)cc3)c(O)c(=O)c12 | 4.65 | 4.76 | 4.78 | 4.97 | 4.66 | 200 µM | – | – | – | – |
| 5.47 | CCCCN(C)C(=O)CCCOc1cc(OC)c(OC)c2oc(-c3ccc(OC)cc3)c(O)c(=O)c12 | < 4.40 | < 4.40 | < 4.40 | < 4.40 | < 4.40 | – | – | – | – | – |
| – | CCN(CC)CCOc1cc(OC)c(OC)c2oc(-c3ccc(OC)cc3)c(O)c(=O)c12 | 4.60 | 5.11 | 4.86 | 4.95 | 4.89 | 200 µM | – | – | – | – |
| 5.28 | COc1ccc(-c2oc3c(OC)c(OC)cc(OCCCCCC(=O)N4CCN(C)CC4)c3c(=O)c2O)cc1 | 4.85 | 4.86 | 4.83 | 4.88 | 4.80 | 50 µM | – | – | – | – |
| – | COc1ccc(-c2oc3c(OC)c(OC)cc(OCCCC(=O)NCc4ccccn4)c3c(=O)c2O)cc1 | < 4.40 | < 4.40 | < 4.40 | < 4.40 | < 4.40 | – | – | – | – | – |
| – | CCCCCN(C)C(=O)CCCCCOc1cc(OC)c(OC)c2oc(-c3ccc(OC)cc3)c(O)c(=O)c12 | 4.46 | 4.71 | 4.77 | 4.65 | < 4.40 | 200 µM | – | – | – | – |
| – | COc1ccc(-c2oc3c(OC)c(OC)cc(OCCN(C)C)c3c(=O)c2O)cc1 | 4.89 | 5.35 | 5.14 | 5.22 | 4.96 | 200 µM | – | – | – | – |
| 4.60 | COc1ccc(-c2oc3c(OC)c(OC)cc(OC(C)CN(C)C)c3c(=O)c2O)cc1 (stereo unspecified) | 5.14 | 5.59 | 5.21 | 5.36 | 5.27 | 100 µM | Tde | Tde | Active | Tde |
| – | COc1ccc(-c2oc3c(OC)c(OC)cc(OCCCCCC(=O)NCc4ccccn4)c3c(=O)c2O)cc1 | < 4.40 | < 4.40 | < 4.40 | < 4.40 | < 4.40 | – | – | – | – | – |
| – | COc1ccc(-c2oc3c(OC)c(OC)cc(OCCN4CCCCC4)c3c(=O)c2O)cc1 | 4.93 | 5.34 | 4.99 | 5.18 | 5.00 | 100 µM | – | – | – | – |
| – | COc1ccc(-c2oc3c(OC)c(OC)cc(OCCCCC(=O)N4CCN(C)CC4)c3c(=O)c2O)cc1 | < 4.40 | < 4.40 | < 4.40 | < 4.40 | < 4.40 | – | – | – | – | – |
| 6.01 | CC(=O)O[C@H]1C(=O)[C@@]2(C)[C@H]([C@H](OC(=O)c3ccccc3)[C@]3(O)C[C@H](OC(=O)[C@H](O)[C@@H](NC(=O)c4ccccc4)c4ccccc4)C(C)=C1C3(C)C)[C@]1(OC(C)=O)CO[C@@H]1C[C@@H]2O [PACLITAXEL] | – | – | – | – | – | – | – | – | – | – |

Reference: ChEMBL document CHEMBL3865844, “Synthesis of 3,5-dihydroxy-7,8-dimethoxy-2-(4-methoxyphenyl)benzopyran-4-one derivatives as anticancer agents” (Bioorg Med Chem Lett, 2016)
